Measured values reported in patent publication US10105357B2, “Indication of antibiotic drugs for preparation of cancer inhibition pharmaceutical composition” (LAUNX BIOMEDICAL CO., LTD., priority 2014, dated 2018).
Where two headings read alike, the source gives them in different places.

Assays:
[1] = system: 786-O (Renal adenocarcinoma); assay: Cell viability analysis, renal cancer 786-O; assay type: cell-based, human; details: Homo sapiens, 786-0, 72 h; 786-O; repeated experiment; read-out: The results of antibiotic drug inhibiting cancer cell lines (cell viability analysis), 786-O
[2] = system: HeLa (Cervix Adenocarcinoma); assay: Cell viability analysis, cervical cancer HeLa; assay type: cell-based, human; details: Homo sapiens, HeLa, 72 h, HeLa
[3] = system: AsPC-1; assay: Cell viability analysis, pancreatic cancer AsPC-1; assay type: cell-based, human; details: Homo sapiens, ASPC1, 72 h; AsPC-1; repeated experiment; read-out: The results of antibiotic drug inhibiting cancer cell lines (cell viability analysis), AsPC-1
[4] = system: BCC (basal cell carcinoma); assay: Cell viability analysis, skin cancer BCC; assay type: cell-based, human; details: Homo sapiens, 72 h; BCC; repeated experiment; read-out: The results of antibiotic drug inhibiting cancer cell lines (cell viability analysis), BCC
[5] = system: HI650 (Lung Adenocarcinoma); assay: Cell viability analysis, lung cancer HI650; assay type: cell-based, human; details: Homo sapiens, NCI-H1650, 72 h
[6] = system: HL-60 (Acute Promyelocytic Leukemia); assay: Cell viability analysis, leukemia HL-60; assay type: cell-based, human; details: Homo sapiens, HL-60, 72 h, drug 10 μM, 72 hours, WST-1, OD450 nm; read-out: cell viability (survival rate), HL-60
[7] = system: TOV-21G; assay: Cell viability analysis, ovarian cancer TOV-21G; assay type: cell-based, human; details: Homo sapiens, TOV21G, 72 h; TOV-21G; repeated experiment; read-out: The results of antibiotic drug inhibiting cancer cell lines (cell viability analysis), TOV-21G
[8] = system: LoVo (Colorectal Adenocarcinoma); assay: Cell viability analysis, colon cancer LoVo; assay type: cell-based, human; details: Homo sapiens, LoVo, 72 h
[9] = system: MDA-MB-231 (Mammary Gland, Adenocarcinoma); assay: Cell viability analysis, breast cancer MDA-MB-231; assay type: cell-based, human; details: Homo sapiens, MDA-MB-231, 72 h; MDA-MB231; repeated experiment; read-out: The results of antibiotic drug inhibiting cancer cell lines (cell viability analysis), MDA-MB231
[10] = system: MCF7 (Mammary Gland, Adenocarcinoma); assay: Cell viability analysis, breast cancer MCF7; assay type: cell-based, human; details: Homo sapiens, MCF7, 72 h
[11] = system: A549 (Lung Adenocarcinoma); assay: Cell viability analysis, lung cancer A549; assay type: cell-based, human; details: Homo sapiens, A549, 72 h
[12] = system: MKN-45 (Gastric Adenocarcinoma); assay: Cell viability analysis, gastric cancer MKN-45; assay type: cell-based, human; details: Homo sapiens, MKN-45, 72 h
[13] = system: SAS (Tongue squamous cell carcinoma); assay: Cell viability analysis, tongue cancer SAS; assay type: cell-based, human; details: Homo sapiens, 72 h; SAS; repeated experiment; read-out: The results of antibiotic drug inhibiting cancer cell lines (cell viability analysis), SAS
[14] = system: NIH: OVCAR-3; assay: Cell viability analysis, ovarian cancer NIH: OVCAR-3; assay type: cell-based, human; details: Homo sapiens, 72 h; NIH-OVCAR-3; repeated experiment; read-out: The results of antibiotic drug inhibiting cancer cell lines (cell viability analysis), NIH-OVCAR-3
[15] = system: HCT116 (p53+) (Colorectal Carcinoma)
[16] = system: AGS (Gastric Adenocarcinoma); assay: Cell viability analysis, gastric cancer AGS; assay type: cell-based, human; details: Homo sapiens, 72 h
[17] = system: cancer cell lines; assay: Cell viability analysis (WST-1) on cancer cell lines; assay type: cell-based, human; details: drug 10 μM, 72 hours, WST-1; Table 3
[18] = system: A375 (Amelanotic Melanoma); assay: Cell viability analysis, skin cancer A375; assay type: cell-based, human; details: Homo sapiens, A-375, 72 h
[19] = system: Hep3B (hepatocellular carcinoma); assay: Cell viability analysis, hepatic cancer Hep3B; assay type: cell-based, human; details: Homo sapiens, 72 h; Hep3B; repeated experiment; read-out: The results of antibiotic drug inhibiting cancer cell lines (cell viability analysis), Hep3B
[20] = system: TSGH-8301 (Urinary Bladder Carcinoma); assay: Cell viability analysis, bladder cancer TSGH-8301; assay type: cell-based, human; details: Homo sapiens, 72 h
[21] = system: C-33A (Cervical carcinoma); assay: Cell viability analysis, cervical cancer C-33A; assay type: cell-based, human; details: Homo sapiens, 72 h; C-33A; repeated experiment; read-out: The results of antibiotic drug inhibiting cancer cell lines (cell viability analysis), C-33A
[22] = system: HepG2 (Hepatocellular Carcinoma); assay: Cell viability analysis, hepatic cancer HepG2; assay type: cell-based, human; details: Homo sapiens, HepG2, 72 h
[23] = system: T24; assay: Cell viability analysis, bladder cancer T24; assay type: cell-based, human; details: Homo sapiens, T-24, 72 h; T24; repeated experiment; read-out: The results of antibiotic drug inhibiting cancer cell lines (cell viability analysis), T24
[24] = system: PC3 (p53−) (Prostate Adenocarcinoma); assay: Cell viability analysis, prostate cancer PC3; assay type: cell-based, human; details: Homo sapiens, 72 h

CC(C)CN(C[C@@H](O)[C@H](Cc1ccccc1)NC(=O)O[C@H]1CCOC1)S(=O)(=O)c1ccc(N)cc1 [Amprenavir (Agenerase), Amprenavir]
viability at 10 µM [1]: 96.7% | viability at 10 µM ([2]; repeated experiment, read-out: The results of antibiotic drug inhibiting cancer cell lines (cell viability analysis), HeLa): 67.9% | viability at 10 µM ([2]; drug 10 μM, 72 hours, WST-1, OD450 nm, read-out: cell viability (survival rate), HeLa): 67.5% | viability at 10 µM [3]: 90.4% | viability at 10 µM [4]: 74.5% | viability at 10 µM ([5]; H1650, repeated experiment, read-out: The results of antibiotic drug inhibiting cancer cell lines (cell viability analysis), H1650): 88.1% | viability at 10 µM ([5]; drug 10 μM, 72 hours, WST-1, OD450 nm, read-out: cell viability (survival rate), H1650): 69.5% | viability at 10 µM [6]: 111% | viability at 10 µM [7]: 97% | viability at 10 µM ([8]; read-out: The results of antibiotic drug inhibiting cancer cell lines (cell viability analysis), LoVo, repeated experiment): 95.5% | viability at 10 µM ([8]; read-out: cell viability (survival rate), LoVo, drug 10 μM, 72 hours, WST-1, OD450 nm): 77.4% | viability at 10 µM [9]: 83.5% | viability at 10 µM ([10]; MCF-7, repeated experiment, read-out: The results of antibiotic drug inhibiting cancer cell lines (cell viability analysis), MCF-7): 68.3% | viability at 10 µM ([10]; drug 10 μM, 72 hours, WST-1, OD450 nm, read-out: cell viability (survival rate), MCF7): 37% | viability at 10 µM ([11]; A549, repeated experiment, read-out: The results of antibiotic drug inhibiting cancer cell lines (cell viability analysis), A549): 79.9% | viability at 10 µM ([11]; drug 10 μM, 72 hours, WST-1, OD450 nm, read-out: cell viability (survival rate), A549): 53.7% | viability at 10 µM ([12]; MKN-45, repeated experiment, read-out: The results of antibiotic drug inhibiting cancer cell lines (cell viability analysis), MKN-45): 103% | viability at 10 µM ([12]; drug 10 μM, 72 hours, WST-1, OD450 nm, read-out: cell viability (survival rate), MKN-45): 52.1% | viability at 10 µM [13]: 83.3% | viability at 10 µM [14]: 106% | viability [15]: 94.5% | viability at 10 µM ([16]; AGS, repeated experiment, read-out: The results of antibiotic drug inhibiting cancer cell lines (cell viability analysis), AGS): 98.6% | viability at 10 µM ([16]; drug 10 μM, 72 hours, WST-1, OD450 nm, read-out: cell viability (survival rate), AGS): 58.8% | inhibition effect on different cancer cell lines [17]: significant inhibition effect | viability at 10 µM ([18]; A375, repeated experiment, read-out: The results of antibiotic drug inhibiting cancer cell lines (cell viability analysis), A375): 88.1% | viability at 10 µM ([18]; drug 10 μM, 72 hours, WST-1, OD450 nm, read-out: cell viability (survival rate), A375): 77.6% | viability at 10 µM [19]: 95.2% | viability at 10 µM ([20]; TSGH-8301, repeated experiment, read-out: The results of antibiotic drug inhibiting cancer cell lines (cell viability analysis), TSGH-8301): 96.1% | viability at 10 µM ([20]; drug 10 μM, 72 hours, WST-1, OD450 nm, read-out: cell viability (survival rate), TSGH): 57% | viability at 10 µM [21]: 109% | viability at 10 µM ([22]; HepG2, repeated experiment, read-out: The results of antibiotic drug inhibiting cancer cell lines (cell viability analysis), HepG2): 94.5% | viability at 10 µM ([22]; drug 10 μM, 72 hours, WST-1, OD450 nm, read-out: cell viability (survival rate), HepG2): 90.9% | viability at 10 µM [23]: 90.5% | viability at 10 µM ([24]; PC-3, repeated experiment, read-out: The results of antibiotic drug inhibiting cancer cell lines (cell viability analysis), PC-3): 87.4% | viability at 10 µM ([24]; drug 10 μM, 72 hours, WST-1, OD450 nm, read-out: cell viability (survival rate), PC3): 80.4%
